Results taken from ChEMBL document CHEMBL5727277, “Heteroarylcarboxamide derivatives as plasma kallikrein inhibitors” (2019).

Target: Plasma kallikrein (Homo sapiens, UniProt P03952)
Experiment: Subsequently, PPACK II (Calbiochem) was added as a stop solution to achieve a final concentration of 1 μM and fluorescence was measured using an Envision Reader (PerkinElmer) with the wavelength excitation setting of 355 nm and the wavelength emission setting of 460 nm.Evaluation of the Inhibition of Human KLKB1 in Dextransulfat Activated Human PPP.Platelet poor plasma (PPP) obtained from human wholeblood, anticoagulated with EDTA, was activated with 12.5 μg/mL dextransulfate for 7 min on ice. The activated PPP was incubated with various concentrations of the test compound in assay buffer. […] Measurements were performed in a kinetic interval every 2nd minute for 16 min using a Spectramax M5 (Molecular Devices) with the following settings of the wavelength excitation of 350 nm and wavelength emission of 450 nm.

Plasma kallikrein, sequence (P03952 20-390 limits assumed): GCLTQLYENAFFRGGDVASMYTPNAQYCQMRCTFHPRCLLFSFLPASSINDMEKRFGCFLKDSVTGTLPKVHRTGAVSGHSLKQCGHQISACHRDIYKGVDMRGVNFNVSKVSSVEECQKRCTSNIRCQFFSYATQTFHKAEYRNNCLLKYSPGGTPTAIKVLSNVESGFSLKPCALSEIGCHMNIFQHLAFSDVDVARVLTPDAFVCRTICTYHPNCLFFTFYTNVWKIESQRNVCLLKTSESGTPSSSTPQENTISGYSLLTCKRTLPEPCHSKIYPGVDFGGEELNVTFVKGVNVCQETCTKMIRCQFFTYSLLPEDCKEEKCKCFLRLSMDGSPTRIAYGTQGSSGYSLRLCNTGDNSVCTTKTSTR
Plasma kallikrein, sequence (P03952 391-638 limits assumed): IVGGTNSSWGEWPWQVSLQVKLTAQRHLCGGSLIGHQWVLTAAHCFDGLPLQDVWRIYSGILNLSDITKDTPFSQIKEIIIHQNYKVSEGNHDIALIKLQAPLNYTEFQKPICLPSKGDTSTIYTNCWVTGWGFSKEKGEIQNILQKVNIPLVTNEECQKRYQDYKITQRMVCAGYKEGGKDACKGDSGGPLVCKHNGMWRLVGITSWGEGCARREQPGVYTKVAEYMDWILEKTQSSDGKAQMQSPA

Row | SMILES | IC50
1 | Cc1ccc2cc(Cn3cc(C(=O)N[C@H]4CCc5c4ccnc5N)nn3)ccc2n1 | 1900 nM
2 | Cc1ccc2cc(Cn3cc(C(=O)N[C@@H]4CCc5c4ccnc5N)nn3)ccc2n1 | 36 nM
